Test results from ChEMBL document CHEMBL1770083, “2-(4-Carbonylphenyl)benzoxazole inhibitors of CETP: attenuation of hERG binding and improved HDLc-raising efficacy” (Bioorg Med Chem Lett, 2011).
pIC50: −log10 of the molar value.

Assays:
[1] = biological target: T1, Cholesteryl ester transfer protein (Homo sapiens, UniProt P11597); test: Inhibition of CETP
T1 sequence (P11597 whole entry): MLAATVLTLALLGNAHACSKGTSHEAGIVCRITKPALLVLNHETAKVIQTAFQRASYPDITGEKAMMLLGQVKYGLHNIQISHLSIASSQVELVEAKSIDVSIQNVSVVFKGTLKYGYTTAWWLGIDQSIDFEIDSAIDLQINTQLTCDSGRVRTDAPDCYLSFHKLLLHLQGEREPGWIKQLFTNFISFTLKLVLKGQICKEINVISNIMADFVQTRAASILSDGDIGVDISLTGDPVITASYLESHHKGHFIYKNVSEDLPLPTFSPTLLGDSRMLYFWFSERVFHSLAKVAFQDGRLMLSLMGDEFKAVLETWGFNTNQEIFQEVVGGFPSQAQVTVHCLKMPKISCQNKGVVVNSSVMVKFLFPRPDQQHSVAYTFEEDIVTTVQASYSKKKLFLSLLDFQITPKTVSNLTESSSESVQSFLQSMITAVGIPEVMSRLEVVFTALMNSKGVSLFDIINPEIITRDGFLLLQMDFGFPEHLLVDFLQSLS

[2] = biological target: Voltage-gated inwardly rectifying potassium channel KCNH2 (Homo sapiens, UniProt Q12809); test: Displacement of [35S]MK499 from human ERG expressed in HEK cells; type: cell-based, HEK293
[3] = Lipophilicity, log D of the compound at pH 7.3 by HPLC; type: physicochemical; details: buffer
Mus musculus = test: Increase of HDL cholesterol level in transgenic mouse model at 10 mg/kg; type: functional

Chain of Voltage-gated inwardly rectifying potassium channel KCNH2 (Q12809 whole entry): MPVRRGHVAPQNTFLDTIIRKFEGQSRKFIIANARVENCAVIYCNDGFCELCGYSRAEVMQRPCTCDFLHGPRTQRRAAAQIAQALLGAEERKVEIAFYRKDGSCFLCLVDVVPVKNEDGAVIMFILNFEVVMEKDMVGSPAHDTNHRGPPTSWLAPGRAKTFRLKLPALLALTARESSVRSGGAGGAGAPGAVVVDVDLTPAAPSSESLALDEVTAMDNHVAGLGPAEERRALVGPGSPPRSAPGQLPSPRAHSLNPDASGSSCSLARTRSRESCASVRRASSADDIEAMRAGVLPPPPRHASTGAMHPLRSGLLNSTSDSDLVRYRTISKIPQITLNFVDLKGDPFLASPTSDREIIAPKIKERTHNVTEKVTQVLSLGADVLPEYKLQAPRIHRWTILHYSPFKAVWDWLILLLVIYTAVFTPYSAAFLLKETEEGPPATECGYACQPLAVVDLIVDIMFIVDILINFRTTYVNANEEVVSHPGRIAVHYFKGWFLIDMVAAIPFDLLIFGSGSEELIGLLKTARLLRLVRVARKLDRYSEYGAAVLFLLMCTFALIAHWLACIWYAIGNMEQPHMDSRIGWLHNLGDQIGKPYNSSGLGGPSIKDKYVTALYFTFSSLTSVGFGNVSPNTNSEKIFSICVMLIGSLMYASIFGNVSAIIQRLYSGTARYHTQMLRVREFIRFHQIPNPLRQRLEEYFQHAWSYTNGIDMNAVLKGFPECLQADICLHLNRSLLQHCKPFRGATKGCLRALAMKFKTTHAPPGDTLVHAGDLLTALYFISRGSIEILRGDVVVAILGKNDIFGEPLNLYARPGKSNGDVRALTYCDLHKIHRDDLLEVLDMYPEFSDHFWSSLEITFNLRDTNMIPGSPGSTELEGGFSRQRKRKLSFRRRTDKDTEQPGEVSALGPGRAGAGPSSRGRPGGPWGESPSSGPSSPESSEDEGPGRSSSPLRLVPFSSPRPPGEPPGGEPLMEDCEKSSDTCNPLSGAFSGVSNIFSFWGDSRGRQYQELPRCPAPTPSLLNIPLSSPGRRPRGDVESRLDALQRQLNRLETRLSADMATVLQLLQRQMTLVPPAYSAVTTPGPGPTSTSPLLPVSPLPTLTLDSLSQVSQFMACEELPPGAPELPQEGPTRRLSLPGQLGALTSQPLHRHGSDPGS

pIC50 [1] | logD [3] | SMILES | pIC50 [2] | Activity (Mus musculus) [mg/dL]
6.85 | – | CC(C)c1cc(C#N)cc2nc(-c3ccc(C(=O)NC[C@H]4CN(c5ccc(-c6ccccc6OC(F)(F)F)cn5)C(=O)O4)cc3)oc12 | 5.45 | –
– | 7.2 | CC(C)Oc1ccc(F)cc1-c1ccc(N2CCC(CNC(=O)c3ccc(-c4nc5cc(C#N)cc(C(C)C)c5o4)cc3)CC2)nc1 | – | 24
5.98 | – | CC(C)c1cc(C#N)cc2nc(-c3ccc(C(=O)NC[C@H]4CC[C@@H](c5cc(C(F)(F)F)cc(C(F)(F)F)c5)CC4)cc3)oc12 | < 4.52 | –
7.43 | – | CC(C)c1cc(C#N)cc2nc(-c3ccc(C(=O)NC[C@H]4CC[C@@H](c5ccc(C(C)(C)C)cc5)CC4)cc3)oc12 | < 4.52 | 17
6.08 | 5.1 | CC(C)c1cc(C#N)cc2nc(-c3ccc(C(=O)NCC4CN(c5ccc(-c6ccccc6C#N)cn5)C(=O)O4)cc3)oc12 (racemic) | 5.93 | –
7.40 | – | CC(C)c1cc(C#N)cc2nc(-c3ccc(C(=O)NC[C@H]4CC[C@H](c5ccc(C(F)(F)F)cc5)CC4)cc3)oc12 | < 4.52 | –
4.72 | 5.8 | CC(C)c1cc(C#N)cc2nc(-c3ccc(C(=O)NCC4CN(c5ccc(Cl)cn5)C(=O)O4)cc3)oc12 (racemic) | – | –
7.18 | – | CC(C)Oc1ccc(F)cc1-c1ccc(N2C[C@@H](CNC(=O)c3ccc(-c4nc5cc(C#N)cc(C(C)C)c5o4)cc3)OC2=O)nc1 | < 4.52 | 24
6.88 | – | Cc1cccc([C@H]2CC[C@H](CNC(=O)c3ccc(-c4nc5cc(C#N)cc(C(C)C)c5o4)cc3)CC2)c1 | – | –
7.11 | – | CC(C)c1cc(C#N)cc2nc(-c3ccc(C(=O)NC[C@H]4CC[C@H](c5ccc(Cl)cc5)CC4)cc3)oc12 | < 4.52 | –
7.34 | – | CC(C)c1cc(C#N)cc2nc(-c3ccc(C(=O)NC[C@@H]4CN(c5ccc(-c6ccccc6OC(F)(F)F)cn5)C(=O)O4)cc3)oc12 | < 4.52 | 19
6.81 | – | CC(C)Oc1ccc(F)cc1-c1ccc(N2C[C@H](CNC(=O)c3ccc(-c4nc5cc(C#N)cc(C(C)C)c5o4)cc3)OC2=O)nc1 | < 4.52 | –
6.87 | – | CC(C)c1cc(C#N)cc2nc(-c3ccc(C(=O)NC[C@H]4CC[C@@H](c5ccc(C(F)(F)F)cc5)CC4)cc3)oc12 | < 4.52 | –
7.08 | – | CC(C)c1cc(C#N)cc2nc(-c3ccc(C(=O)NC[C@H]4CC[C@H](c5cc(C(F)(F)F)cc(C(F)(F)F)c5)CC4)cc3)oc12 | < 4.52 | –
7.00 | – | CC(C)c1cc(C#N)cc2nc(-c3ccc(C(=O)NC[C@H]4CC[C@H](c5cccc(C(F)(F)F)c5)CC4)cc3)oc12 | – | –
7.17 | 6.4 | CC(C)c1cc(C#N)cc2nc(-c3ccc(C(=O)NCC4CN(c5ccc(-c6ccccc6OC(F)(F)F)cn5)C(=O)O4)cc3)oc12 (racemic) | < 4.52 | –
5.63 | 5.4 | C=C(C)c1ccc(N2CC(CNC(=O)c3ccc(-c4nc5cc(C#N)cc(C(C)C)c5o4)cc3)OC2=O)nc1 (racemic) | < 4.52 | –
7.74 | – | CC(C)c1cc(C#N)cc2nc(-c3ccc(C(=O)NC[C@@]4(C)CN(c5ccc(-c6ccccc6OC(F)(F)F)cn5)C(=O)O4)cc3)oc12 | < 4.52 | 27
7.42 | – | CC(C)c1cc(C#N)cc2nc(-c3ccc(C(=O)NC[C@H]4CC[C@H](c5ccc(C(C)(C)C)cc5)CC4)cc3)oc12 | < 4.52 | 18
7.66 | – | CC(C)c1cc(C#N)cc2nc(-c3ccc(C(=O)NC[C@]4(C)CN(c5ccc(-c6ccccc6OC(F)(F)F)cn5)C(=O)O4)cc3)oc12 | < 4.52 | 33
6.77 | 6.9 | Cc1ccc(OC(C)C)c(-c2ccc(N3CC(CNC(=O)c4ccc(-c5nc6cc(C#N)cc(C(C)C)c6o5)cc4)OC3=O)nc2)c1 (racemic) | – | –
6.91 | 6.6 | CC(C)Oc1ccc(F)cc1-c1ccc(N2CC(CNC(=O)c3ccc(-c4nc5cc(C#N)cc(C(C)C)c5o4)cc3)OC2=O)nc1 (racemic) | < 4.52 | –
– | 4.8 | CC(C)c1cc(C#N)cc2nc(-c3ccc(C(=O)NCC4CN(c5ccc(-c6ccccc6C(N)=O)cn5)C(=O)O4)cc3)oc12 (racemic) | < 4.52 | –
7.11 | – | CC(C)c1cc(C#N)cc2nc(-c3ccc(C(=O)NC[C@H]4CC[C@@H](c5cccc(C(F)(F)F)c5)CC4)cc3)oc12 | – | –
6.84 | – | Cc1cccc([C@H]2CC[C@@H](CNC(=O)c3ccc(-c4nc5cc(C#N)cc(C(C)C)c5o4)cc3)CC2)c1 | – | –
6.02 | 6.2 | Cc1ccc(-c2ccc(N3CC(CNC(=O)c4ccc(-c5nc6cc(C#N)cc(C(C)C)c6o5)cc4)OC3=O)nc2)s1 (racemic) | 4.90 | –
